Like-named read-outs stand apart in the source and are kept apart here.

Assay [1] relates to DUX4. The experiment in a line: high-content immunocytochemistry assay of endogenous DUX4 expression in differentiating primary FSHD myotubes. The class given is cell-based, human. Particulars: Homo sapiens, Myotube. The text has this: A quantitative assay readout was developed based on script-based image analysis. […] To analyse the images, an automated script was developed, enabling the detection of nuclei, myotube borders and DUX4 signals, with the script also detecting artefacts to reduce false positive signals. The script enabled multiple validated readouts including the number of DUX4 positive nuclei and nuclei clusters, the fusion index, myotube area, myotube width and myotube skeleton length (see FIG. 2). Additionally, the total nuclei count was included as a measure of cell loss or compound toxicity.
A compound library containing approximately 5000 annotated compounds was screened in the high-content assay. For this purpose, primary myoblasts were seeded in 384 well plates after which the growth medium was replaced with differentiation medium. After 3 days of differentiation, cells were treated with library compounds (in duplicate on different screening plates) for 15 h, after which they were fixed and stained with antibodies against DUX4, antibodies against myosin heavy chain (MHC), and with DAPI (4′,6-diamidino-2-phenylindole). Script-based analysis provided readouts for DUX4 expression (count of DUX4-positive nuclei or DUX4 intensity) and for potential toxicity (fusion index and nuclei count).
Compounds were incubated with primary FSHD cells for 15 hours, as indicated by the arrow in FIG. 4A.
Compounds are administered either 15 h before fixation, resembling the original screening protocol, or 72 h before fixation (grey arrow). In the latter case, compounds are present during the whole differentiation process.

Assay [2] addresses CK1α (Homo sapiens, UniProt P48729). As to the kind of experiment: CK1α inhibition IC50. Type of assay: biochemical.
For assay [3], the target named is CK1δ (Homo sapiens, UniProt P48730). As to the kind of experiment: CK1δ inhibition IC50. The class given is biochemical.
CK1δ, sequence (P48730 whole entry): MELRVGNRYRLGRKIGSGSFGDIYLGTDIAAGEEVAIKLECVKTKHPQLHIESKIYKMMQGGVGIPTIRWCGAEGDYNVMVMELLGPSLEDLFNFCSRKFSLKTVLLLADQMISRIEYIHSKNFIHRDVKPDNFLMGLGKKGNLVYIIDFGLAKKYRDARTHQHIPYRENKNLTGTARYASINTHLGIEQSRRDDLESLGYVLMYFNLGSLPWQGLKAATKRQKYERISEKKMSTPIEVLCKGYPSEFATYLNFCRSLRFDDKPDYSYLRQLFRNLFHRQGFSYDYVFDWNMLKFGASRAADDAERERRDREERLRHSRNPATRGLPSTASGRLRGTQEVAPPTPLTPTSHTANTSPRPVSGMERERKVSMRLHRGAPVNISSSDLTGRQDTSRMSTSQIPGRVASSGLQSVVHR
Assay [4] has as its target p38α (Homo sapiens, UniProt Q16539). The experiment in a line: p38α inhibition IC50. Type of assay: biochemical.
The target of assay [5] is CK1ε (Homo sapiens, UniProt P49674). The experiment in a line: CK1ε inhibition IC50. Type of assay: biochemical.
CK1ε, sequence (P49674 whole entry): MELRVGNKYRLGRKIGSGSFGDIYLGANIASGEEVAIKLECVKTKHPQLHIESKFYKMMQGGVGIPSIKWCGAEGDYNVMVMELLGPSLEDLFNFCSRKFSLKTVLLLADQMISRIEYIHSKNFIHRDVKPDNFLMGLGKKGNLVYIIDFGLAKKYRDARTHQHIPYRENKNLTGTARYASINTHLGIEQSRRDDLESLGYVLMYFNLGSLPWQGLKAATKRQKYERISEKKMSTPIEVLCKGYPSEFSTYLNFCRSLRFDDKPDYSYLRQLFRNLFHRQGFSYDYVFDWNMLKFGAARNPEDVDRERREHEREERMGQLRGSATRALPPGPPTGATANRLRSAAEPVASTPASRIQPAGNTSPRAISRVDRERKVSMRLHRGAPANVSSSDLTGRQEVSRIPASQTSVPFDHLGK
The mark [6] stands for this setting: 72 h, Table 4, 72 h treatment protocol, read-out: DUX4 EC50.
Where [7] appears, read: 72 h, Table 6, 72 h treatment protocol, read-out: DUX4 EC50.
Setting [8] is: Table 7, p38 compounds, read-out: IC50 CK1a.

CK1α, sequence (P48729 whole entry): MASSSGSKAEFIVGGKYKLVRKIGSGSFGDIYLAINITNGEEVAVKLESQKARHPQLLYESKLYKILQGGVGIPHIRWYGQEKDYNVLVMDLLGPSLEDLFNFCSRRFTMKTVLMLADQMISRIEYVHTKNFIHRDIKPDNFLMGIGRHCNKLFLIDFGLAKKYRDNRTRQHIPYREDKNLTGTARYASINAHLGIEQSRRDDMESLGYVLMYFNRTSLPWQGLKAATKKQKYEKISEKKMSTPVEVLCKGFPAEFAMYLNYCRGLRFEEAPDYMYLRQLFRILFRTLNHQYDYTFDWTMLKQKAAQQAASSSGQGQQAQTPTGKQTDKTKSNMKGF
p38α, sequence (Q16539 whole entry): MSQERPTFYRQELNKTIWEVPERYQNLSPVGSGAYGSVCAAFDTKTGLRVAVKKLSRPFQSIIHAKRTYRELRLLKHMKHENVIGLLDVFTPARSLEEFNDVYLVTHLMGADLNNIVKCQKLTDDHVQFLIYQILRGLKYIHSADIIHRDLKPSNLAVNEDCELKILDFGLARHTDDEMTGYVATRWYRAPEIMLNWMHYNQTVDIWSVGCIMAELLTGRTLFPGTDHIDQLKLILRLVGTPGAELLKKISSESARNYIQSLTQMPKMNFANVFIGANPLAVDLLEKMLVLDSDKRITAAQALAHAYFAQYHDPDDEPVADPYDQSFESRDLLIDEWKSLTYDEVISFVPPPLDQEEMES

On to `CN1CCN(c2ccc3nc(-c4ccc(F)cc4)c(-c4ccncc4)n3n2)CC1` [Nr. 2], for which the EC50 in assay [1] (setting [6]) and in assay [1] (setting [7]) was 340 nM throughout. Moreover, the IC50 (as a rule, the concentration that inhibits the measured activity by half) in assay [2] (Table 4, read-out: CK1 a IC50) was found to be 65 nM; in assay [2] (Table 6, read-out: IC50 CK1α), 65 nM; in assay [3] (Table 4, read-out: CK1 d IC50), 29 nM; in assay [3] (Table 6, read-out: IC50 CK1δ) it was 29 nM; in assay [4] (Table 4, read-out: p38a IC50), 23 nM; in assay [4] (Table 6, read-out: IC50 p38α) it was 23 nM.

`CNCc1cc(-c2cn(C)nc2-c2ccc(F)cc2)ccn1` [Nr. 9]: the EC50 (commonly the concentration needed to bring the measured effect to its halfway point) in assay [1] (15 h, read-out: EC50 for DUX4 repression) is 3100 to 5500 nM; in assay [1] (72 h, read-out: DUX4 EC50), 6400 nM. In addition, the IC50 in assay [3] (Table 6, read-out: IC50 CK1δ) worked out at 58 nM.

Consider `C[C@@H]1CN(Cc2ccc(F)cc2)[C@@H](C)CN1C(=O)c1cc2c(C(=O)C(=O)N(C)C)cn(C)c2cc1Cl` [SCIO469, reference compound], for which the IC50 in assay [2] (setting [8]) was > 10000 nM.

For `NC(=O)c1ccc(N(C(N)=O)c2c(F)cccc2F)nc1-c1ccc(F)cc1F` [VX702, 2-(2,4-difluorophenyl)-6-(1-(2,6-difluoropheny)ureido)nicotinamide, reference compound], the IC50 in assay [2] (setting [8]) was > 10000 nM.

For the molecule `c1ccc(-c2nc3ccc(N4CCC(N5CCCC5)CC4)nn3c2-c2ccncc2)cc1` [Nr. 13], the EC50 in assay [1] (setting [6]) and in assay [1] (setting [7]) was 310 nM in each case.

`Fc1ccc(-c2nc3ccc(N4CCNC5(CC5)C4)nn3c2-c2ccncc2)cc1` [Nr. 21]: the EC50 in assay [1] (setting [6]) and in assay [1] (setting [7]) was 100 nM each time. Also, the IC50 is 61.4 nM in assay [2] (Table 4, read-out: CK1 a IC50); 61 nM in assay [2] (Table 6, read-out: IC50 CK1α); 58.5 nM in assay [3] (Table 4, read-out: CK1 d IC50); 58 nM in assay [3] (Table 6, read-out: IC50 CK1δ); 28.9 nM in assay [4] (Table 4, read-out: p38a IC50); 29 nM in assay [4] (Table 6, read-out: IC50 p38α).

As for `Cn1cc(-c2ccncc2)c(-c2ccc(F)cc2)n1` [Nr. 17], the EC50 in assay [1] (setting [6]) and in assay [1] (setting [7]) was 2900 nM throughout. For the same molecule, the IC50 in assay [2] (Table 4, read-out: CK1 a IC50) was 873 nM; in assay [2] (Table 6, read-out: IC50 CK1α), 873 nM; in assay [3] (Table 4, read-out: CK1 d IC50) it was 36.1 nM; in assay [3] (Table 6, read-out: IC50 CK1δ), 36 nM; in assay [4] (Table 4, read-out: p38a IC50) it was 63.2 nM; in assay [4] (Table 6, read-out: IC50 p38α), 63 nM.

On to `Cn1cc(-c2ccnc3[nH]ccc23)c(-c2ccc(F)cc2)n1` [Nr. 16], for which the EC50 in assay [1] (setting [6]) and in assay [1] (setting [7]) was 1200 nM throughout. Also, the IC50 in assay [2] (Table 4, read-out: CK1 a IC50) amounted to 196 nM; in assay [2] (Table 6, read-out: IC50 CK1α), 196 nM; in assay [3] (Table 4, read-out: CK1 d IC50), 16.9 nM; in assay [3] (Table 6, read-out: IC50 CK1δ), 17 nM; in assay [4] (IC50 p38α, Table 6), 18 nM; in assay [4] (p38a IC50, Table 4), 17.9 nM.

For the molecule `Fc1ccc(-c2nn(CC(F)(F)F)cc2-c2ccnc3[nH]ccc23)cc1` [Nr. 20], the EC50 in assay [1] (setting [6]) and in assay [1] (setting [7]) was 2200 nM in each case. Besides, the IC50 in assay [2] (Table 4, read-out: CK1 a IC50) is 186 nM; in assay [2] (Table 6, read-out: IC50 CK1α) it was 186 nM; in assay [3] (Table 4, read-out: CK1 d IC50) it was 55.5 nM; in assay [3] (Table 6, read-out: IC50 CK1δ), 55 nM; in assay [4] (Table 4, read-out: p38a IC50), 50.3 nM; in assay [4] (Table 6, read-out: IC50 p38α), 50 nM.

In the case of `Nc1nccc(-c2c(-c3ccc(F)cc3)ncn2C2CCN(Cc3ccon3)CC2)n1` [PF-5006739, reference compound], the EC50 in assay [1] (setting [6]) and in assay [1] (setting [7]) was 620 nM each time. For the same molecule, the IC50 is 19.8 nM in assay [3] (Table 3, read-out: CK1 d IC50); 19.8 nM in assay [3] (Table 4, read-out: CK1 d IC50); 74.3 nM in assay [4] (Table 3, read-out: p38a IC50); 74.3 nM in assay [4] (Table 4, read-out: p38a IC50); 26.8 nM in assay [5] (Table 3, read-out: CK1 e IC50); 26.8 nM in assay [5] (Table 4, read-out: CK1 e IC50).

Regarding `c1ccc(-c2nc3ccc(N4CCNCC4)nn3c2-c2ccncc2)cc1` [Nr. 12], the EC50 in assay [1] (setting [6]) and in assay [1] (setting [7]) was 50 nM throughout.

Take `Cc1cc(-c2cn(C)nc2-c2ccc(F)cc2)ccn1` [Nr. 19]: the EC50 in assay [1] (setting [6]) and in assay [1] (setting [7]) was 4900 nM throughout. The IC50 stood at 4020 nM in assay [2] (Table 4, read-out: CK1 a IC50); 4020 nM in assay [2] (Table 6, read-out: IC50 CK1α); 80.7 nM in assay [3] (Table 4, read-out: CK1 d IC50); 81 nM in assay [3] (Table 6, read-out: IC50 CK1δ); 449 nM in assay [4] (Table 4, read-out: p38a IC50); 449 nM in assay [4] (Table 6, read-out: IC50 p38α).

In the case of `COCCN1Cc2nccc(-c3cn(C)nc3-c3ccc(F)cc3)c2C1=O` [Nr. 7], the EC50 in assay [1] (setting [6]) and in assay [1] (setting [7]) was 5000 nM throughout. Also, the IC50 in assay [3] (Table 6, read-out: IC50 CK1δ) stood at 42 nM; in assay [5] (Table 6, read-out: IC50 CK1ε) it was 92 nM.

On to `Cn1cc(-c2ccnc3c2C(=O)N(C2CCOCC2)C3)c(-c2ccc(F)cc2)n1` [Nr. 6], for which the EC50 in assay [1] (setting [6]) and in assay [1] (setting [7]) was 8100 nM in each case. The IC50 in assay [5] (Table 3, read-out: CK1 e IC50) is 72.4 nM; in assay [5] (Table 4, read-out: CK1 e IC50), 72.4 nM.

The record behind these values is patent US20220226340A1, “CASEIN KINASE 1 INHIBITORS FOR USE IN THE TREATMENT OF DISEASES RELATED TO DUX4 EXPRESSION SUCH AS MUSCULAR DYSTROPHY AND CANCER” (Facio Intellectual Property B.V., priority 2019, published 2022).
